Results from US8383581B2, “Short-chain peptides as parathyroid hormone (PTH) receptor agonist” (Cadila Healthcare Limited, priority 2009, dated 2013).
Where a SMILES comes first, the peptide text is derived from it. [ ]: non-standard residue; d: D form. ξ: configuration not given here. ξBip(2'-Et-4'-OMe) = CCc1cc(OC)ccc1-c1ccc(CC(N)C(=O)O)cc1; Arg(NO2) = N=C(NCCC[C@H](N)C(=O)O)N[N+](=O)[O-]; αMePhe(2,6-F2) = C[C@](N)(Cc1c(F)cccc1F)C(=O)O; ξαMePhe(2,6-F2) = CC(N)(Cc1c(F)cccc1F)C(=O)O; αMePhe(2-F) = C[C@](N)(Cc1ccccc1F)C(=O)O; ξαMe(hhPhe) = CC(N)(CCCc1ccccc1)C(=O)O; ξαMePhe(2-F) = CC(N)(Cc1ccccc1F)C(=O)O; hhPhe = N[C@@H](CCCc1ccccc1)C(=O)O; hArg = N=C(N)NCCCC[C@H](N)C(=O)O; hCit = NC(=O)NCCCC[C@H](N)C(=O)O; Cit = NC(=O)NCCC[C@H](N)C(=O)O; NMeV = CN[C@H](C(=O)O)C(C)C; ξαMeV = CC(C)C(C)(N)C(=O)O; ξαMeM = CSCCC(C)(N)C(=O)O; Nle = CCCC[C@H](N)C(=O)O; Orn = NCCC[C@H](N)C(=O)O; ξαMeP = CC1(C(=O)O)CCCN1; Ac5c = NC1(C(=O)O)CCCC1; Aib = CC(C)(N)C(=O)O

Experiments:
Format in all cases: in vitro ADME
[1] = Stability of peptides in simulated intestinal fluid (pH 7.5); settings: pH 7.5; for half-life / half-life (t1/2) in simulated intestinal fluid: simulated gi fluid; for % degradation of peptides in 24 h when incubated with simulated intestinal fluid: 2 μM
Experimental: (§1) b) Stability of Peptides in Human Plasma, Simulated Gastric Fluid, Intestinal Fluid and Liver Microsomes (Ex-Vivo): Different short-chain peptides (final concentration 2 μM) were incubated with either pooled human plasma (7.5 μL) or simulated gastric fluid (pH 1.5; composition HCl, NaCl and Pepsin) or simulated intestinal fluid (pH 7.5) or human liver microsomes, for 0, 2, 4, 6, 12 and 24 h (37° C.; 50 mM triethanolamine-HCl buffer; pH 7.8). Concentrations of human plasma/simulated gastric fluid/simulated intestinal fluid/human liver microsomes were selected in preliminary experiments to provide degradation of approximately 50% of PTH(1-34) within 1 h, therefore allowing time-dependent degradation to be viewed over 24 h. Reactions were terminated by the addition of TFA/H2O ([…], 10% (v/v)). The reaction products were then applied to a Vydac C18 analytical column (4.6×250-mm) and the major degradation fragment separated from intact short-chain peptides. The column was equilibrated with TFA/H20, at a flow rate of 1 mL/min. Using 0.1% (v/v) TFA in 70% acetonitrile/H2O, the concentration of acetonitrile in the eluting solvent was raised from 0% to 28% over 10 min and from 28% to 42% over 30 min. The absorbance was monitored at 206 nm using UV detector and peaks were collected manually prior to ESI-MS analysis. Area under the curve was measured for test peptides and their metabolites and percentage degradation were calculated at each time point over a period of 24 h. Stability study results of selected peptides, in human plasma, simulated gastric fluid, intestinal fluid and liver microsomes (in vitro) are listed in Table 4.

[2] = Stability of peptides in human liver microsomes; settings: human, microsomes; for % degradation of peptides in 24 h when incubated with liver microsomes: 2 μM, pH 7.8
Experimental: as §1

[3] = Stability of peptides in human plasma; settings: human, plasma; for metabolised at 24 h, 2 μM: pH 7.8
Experimental: as §1

[4] = Stability of peptides in simulated gastric fluid (pH 1.5; HCl, NaCl and Pepsin); settings: pH 1.5; for % degradation of peptides in 24 h when incubated with simulated gastric fluid: 2 μM; for half-life / half-life (t1/2) in simulated gastric fluid: simulated gi fluid
Experimental: as §1

| half-life [1] | % degradation of peptides in 24 h when incubated with simulated intestinal fluid [1] | half-life (t1/2) in liver microsomes [2] | % degradation of peptides in 24 h when incubated with liver microsomes [2] | half-life [3] | metabolised at 24 h, 2 μM [3] | % degradation of peptides in 24 h when incubated with simulated gastric fluid [4] | half-life [4] | half-life [2] | half-life (t1/2) in human plasma [3] | half-life (t1/2) in simulated intestinal fluid [1] | half-life (t1/2) in simulated gastric fluid [4] | SMILES |
| --- | --- | --- | --- | --- | --- | --- | --- | --- | --- | --- | --- | --- |
| > 24 h | 00% | (5) h | 32% | > 24 h | 0% | 00% | > 24 h | – | – | – | – | CC[C@H](C)[C@H](NC(=O)[C@H](CCC(=O)O)NC(=O)C(C)(C)NC(=O)[C@@H](NC(=O)C1(NC(=O)[C@@H](NC)C(C)C)CCCC1)C(C)C)C(=O)N[C@@H](CCC(N)=O)C(=O)N[C@@H](CC(C)C)C(=O)NC(C)(CCSC)C(=O)N[C@@H](Cc1c[nH]cn1)C(=O)N[C@@H](CCC(N)=O)C(=O)N[C@@H](CCCCNC(=N)N)C(=O)N[C@@H](C)C(=O)N[C@@H](CCCCNC(=N)N)C(=O)NC(C)(Cc1ccccc1F)C(=O)NC(C)(CCCc1ccccc1)C(N)=O (stereo partly drawn) [Seq. ID. 940] (H-[NMeV][Ac5c]V[Aib]EIQL[ξαMeM]HQ[hArg]A[hArg][ξαMePhe(2-F)][ξαMe(hhPhe)]-NH2) |
| > 24 h | 00% | – | 82% | > 24 h | 0% | 49% | 4 h | 2 h | – | – | – | CCCC[C@H](NC(=O)C(C)(Cc1ccccc1F)NC(=O)[C@H](CCC(N)=O)NC(=O)[C@@H](NC(=O)[C@H](CCC(=O)O)NC(=O)C1(NC(=O)[C@@H](NC(=O)C2(N)CCCC2)C(C)C)CCCC1)[C@@H](C)CC)C(=O)N[C@@H](Cc1c[nH]cn1)C(=O)N[C@@H](CCC(N)=O)C(=O)N[C@@H](CCCCNC(=N)N)C(=O)N1CCCC1(C)C(=O)N[C@@H](CCCCN)C(=O)NC(C)(Cc1c(F)cccc1F)C(N)=O (stereo partly drawn) [Seq. ID. 100] (H-[Ac5c]V[Ac5c]EIQ[ξαMePhe(2-F)][Nle]HQ[hArg][ξαMeP]K[ξαMePhe(2,6-F2)]-NH2) |
| > 24 h | 00% | – | 81% | > 24 h | 0% | 52% | 4 h | 2 h | – | – | – | CC[C@H](C)[C@H](NC(=O)[C@H](CCC(=O)O)NC(=O)C(C)(C)NC(=O)[C@@H](NC(=O)C1(NC(=O)[C@@H](N)C(C)C)CCCC1)C(C)C)C(=O)N[C@@H](CCC(N)=O)C(=O)N[C@@H](CC(C)C)C(=O)NC(C)(CCSC)C(=O)N[C@@H](Cc1c[nH]cn1)C(=O)N[C@@H](CCC(N)=O)C(=O)N[C@@H](CCCCNC(=N)N)C(=O)N[C@@H](C)C(=O)N[C@@H](CCCCNC(=N)N)C(=O)NC(C)(Cc1ccccc1F)C(=O)NC(C)(CCCc1ccccc1)C(N)=O (stereo partly drawn) [Seq. ID. 936] (H-V[Ac5c]V[Aib]EIQL[ξαMeM]HQ[hArg]A[hArg][ξαMePhe(2-F)][ξαMe(hhPhe)]-NH2) |
| 0.5 h | 100% | – | 100% | – | 70% | 100% | 0.5 h | 0.5 h | (9) h | – | – | CCCC[C@H](NC(=O)[C@](C)(Cc1ccccc1F)NC(=O)[C@H](CCC(N)=O)NC(=O)[C@@H](NC(=O)[C@H](CCC(=O)O)NC(=O)C(C)(C)NC(=O)[C@@H](NC(=O)C(C)(C)N)C(C)C)[C@@H](C)CC)C(=O)N[C@@H](Cc1c[nH]cn1)C(=O)N[C@@H](CCC(N)=O)C(=O)N[C@@H](CCCN)C(=O)N[C@@H](C)C(=O)N[C@@H](CCCNC(=N)N[N+](=O)[O-])C(=O)N[C@@](C)(Cc1ccccc1F)C(N)=O [Seq. ID. 329] (H-[Aib]V[Aib]EIQ[αMePhe(2-F)][Nle]HQ[Orn]A[Arg(NO2)][αMePhe(2-F)]-NH2) |
| 0.5 h | 100% | – | 100% | – | 71% | 100% | 0.5 h | 0.5 h | (9) h | – | – | CCCC[C@H](NC(=O)C(C)(Cc1ccccc1F)NC(=O)[C@H](CCC(N)=O)NC(=O)[C@@H](NC(=O)[C@H](CCC(=O)O)NC(=O)C(C)(C)NC(=O)[C@@H](NC(=O)C1(N)CCCC1)C(C)C)[C@@H](C)CC)C(=O)N[C@@H](Cc1c[nH]cn1)C(=O)N[C@@H](CCC(N)=O)C(=O)N[C@@H](CCCN)C(=O)N[C@@H](C)C(=O)NC(C)(Cc1c(F)cccc1F)C(=O)NC(C)(Cc1ccccc1F)C(N)=O (stereo partly drawn) [Seq. ID. 315] (H-[Ac5c]V[Aib]EIQ[ξαMePhe(2-F)][Nle]HQ[Orn]A[ξαMePhe(2,6-F2)][ξαMePhe(2-F)]-NH2) |
| – | 45% | – | 81% | 8 h | 77% | 14% | – | 1 h | – | (6) h | (8) h | CCCC[C@H](NC(=O)C(C)(Cc1c(F)cccc1F)NC(=O)[C@H](CCC(N)=O)NC(=O)[C@@H](NC(=O)[C@H](CCC(=O)O)NC(=O)C(C)(C)NC(=O)[C@@H](NC(=O)C(C)(C)N)C(C)C)[C@@H](C)CC)C(=O)N[C@@H](Cc1c[nH]cn1)C(=O)N[C@@H](CCC(N)=O)C(=O)N[C@@H](CCCCNC(N)=O)C(=O)N[C@@H](C)C(=O)N[C@@H](CCCNC(N)=O)C(=O)NC(Cc1ccc(-c2ccc(OC)cc2CC)cc1)C(=O)N[C@@H](CCCc1ccccc1)C(N)=O (stereo partly drawn) [Seq. ID. 860] (H-[Aib]V[Aib]EIQ[ξαMePhe(2,6-F2)][Nle]HQ[hCit]A[Cit][ξBip(2'-Et-4'-OMe)][hhPhe]-NH2) |
| 0.5 h | 100% | – | 100% | – | 77% | 100% | 0.5 h | 0.5 h | (9) h | – | – | CCCC[C@H](NC(=O)[C@](C)(Cc1c(F)cccc1F)NC(=O)[C@H](CCC(N)=O)NC(=O)[C@@H](NC(=O)[C@H](CCC(=O)O)NC(=O)C(C)(C)NC(=O)[C@@H](NC(=O)C1(N)CCCC1)C(C)C)[C@@H](C)CC)C(=O)N[C@@H](Cc1c[nH]cn1)C(=O)N[C@@H](CCC(N)=O)C(=O)N[C@@H](CCCCNC(=N)N)C(=O)NC(C)(C)C(=O)N[C@@H](CCCCN)C(=O)N[C@@](C)(Cc1ccccc1F)C(N)=O [Seq. ID. 85] (H-[Ac5c]V[Aib]EIQ[αMePhe(2,6-F2)][Nle]HQ[hArg][Aib]K[αMePhe(2-F)]-NH2) |
| – | 45% | – | 81% | 8 h | 77% | 14% | – | 1 h | – | (6) h | (8) h | CCCC[C@H](NC(=O)C(C)(Cc1ccccc1F)NC(=O)[C@H](CCC(N)=O)NC(=O)[C@@H](NC(=O)[C@H](CCC(=O)O)NC(=O)C(C)(C)NC(=O)[C@@H](NC(=O)C1(N)CCCC1)C(C)C)[C@@H](C)CC)C(=O)N[C@@H](Cc1c[nH]cn1)C(=O)N[C@@H](CCC(N)=O)C(=O)N[C@@H](CCCCNC(N)=O)C(=O)N[C@@H](C)C(=O)N[C@@H](CCCNC(N)=O)C(=O)NC(C)(Cc1ccccc1F)C(N)=O (stereo partly drawn) [Seq. ID. 411] (H-[Ac5c]V[Aib]EIQ[ξαMePhe(2-F)][Nle]HQ[hCit]A[Cit][ξαMePhe(2-F)]-NH2) |
| > 24 h | 00% | (5) h | 33% | > 24 h | 0% | 00% | > 24 h | – | – | – | – | CCCC[C@H](NC(=O)[C@H](CC(C)C)NC(=O)[C@H](CCC(N)=O)NC(=O)[C@@H](NC(=O)[C@H](CCC(=O)O)NC(=O)C(C)(C)NC(=O)[C@@H](NC(=O)C1(NC(=O)C(C)(N)C(C)C)CCCC1)C(C)C)[C@@H](C)CC)C(=O)N[C@@H](Cc1c[nH]cn1)C(=O)N[C@@H](CCC(N)=O)C(=O)N[C@@H](CCCCNC(=N)N)C(=O)N[C@@H](C)C(=O)N[C@@H](CCCCN)C(=O)NC(Cc1ccc(-c2ccc(OC)cc2CC)cc1)C(=O)NC(C)(CCCc1ccccc1)C(N)=O (stereo partly drawn) [Seq. ID. 895] (H-[ξαMeV][Ac5c]V[Aib]EIQL[Nle]HQ[hArg]AK[ξBip(2'-Et-4'-OMe)][ξαMe(hhPhe)]-NH2) |
